{
  "source": "paper PMC2994747",
  "about": "“Molecular Characterization of c-Abl/c-Src Kinase Inhibitors Targeted against Murine Tumour Progenitor Cells that Express Stem Cell Markers” (PLoS ONE, 2010)",
  "key": {"A549 [1]": {"system": "A549", "assay": "MTS cell viability assay", "format": "cell-based, human", "how_it_was_run": "(§1)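 MTS read-out, A490 after 1 h reagent incubation. Exposure to dual kinase inhibitors vs 0.2% DMSO vehicle: 24 h or 96 h, triplicate wells. Culture: DMEM, 10% FCS, 4 mmol/l L-glutamine, 37°C/5% CO2.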"}, "CaCo2 [2]": {"system": "CaCo2", "assay": "MTS cell viability assay", "format": "cell-based, human", "how_it_was_run": "as §1"}, "HepG2 [3]": {"system": "HepG2", "assay": "MTS cell viability assay", "format": "cell-based, human", "how_it_was_run": "as §1"}, "A549 [4]": {"system": "A549", "assay": "Western blot, semi-quantitative protein expression", "format": "cell-based, human", "description": "(§2) For the Western Blot analysis, cells were rinsed and lysed as previously described. An amount of 25 µg protein was used for SDS-PAGE. Antibodies for c-Abl (sc-131), Actin (sc-1616), Cdc2-p34 (sc-8395), EPS15 (sc-1840), FAK (sc-558), c-Fos (sc-52), p38 (sc-7972), p53 (sc-6243) and STAT5 (sc-835x) were obtained from Santa Cruz (Santa Cruz Biotechnology, Heidelberg, Germany), while c-Src (2109) and phospho-Src Y416 (2101) were purchased from Cell Signaling (Cell Signaling Technology, Frankfurt a. M., Germany). The EGFR (06-847), phospho-EGFR Y992 (07-821) and phospho-EGFR Y1045 (04-284) stem from Upstate (Upstate, Schwalbach, Germany) and the hnRNP-K (A300-676A) from Bethyl Labs (Bethyl Laboratories, Montgomery, Texas, USA). Finally p73 (IMG-246) was supplied by Imgenex (Imgenex, Hamburg, Germany). Depending on the primary antibody the secondary antibodies were either horseradish peroxidase-conjugated anti-mouse (AP 160P), anti-rabbit (AP 132P) or anti-sheep (AP 147P) (Chemicon, Schwalbach, Germany).\n(§3) Semi-quantitative analysis were carried out with Kodak 1D Image Analysis Software in reference to the vehicle treated control cells (see supplementary table S7)."}, "CaCo2 [5]": {"system": "CaCo2", "assay": "Western blot, semi-quantitative protein expression", "format": "cell-based, human", "description": "as §2, §3"}, "GammaA3 [6]": {"system": "GammaA3", "assay": "Cell cycle analysis by flow cytometry", "format": "cell-based, mouse", "conditions": "IC50 concentration, 96 h", "how_it_was_run": "(§4)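 Read-out is DNA content by flow cytometry using a commercial cell-cycle staining kit. Samples pass sequentially through kit solutions A (10 min, room temperature), B and C, the last step at 4°C protected from light, and are then held on ice in the dark.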"}, "BetaD5 [7]": {"system": "BetaD5", "assay": "Cell cycle analysis by flow cytometry", "format": "cell-based, mouse", "conditions": "IC50 concentration, 96 h", "how_it_was_run": "as §4"}, "GammaD12 [8]": {"system": "GammaD12", "assay": "Cell cycle analysis by flow cytometry", "format": "cell-based, mouse", "conditions": "IC50 concentration, 96 h", "how_it_was_run": "as §4"}, "GammaA3 [9]": {"system": "GammaA3", "assay": "MTS cell viability assay", "format": "cell-based, mouse", "how_it_was_run": "as §1"}, "A2C12": {"system": "A2C12", "assay": "MTS cell viability assay", "format": "cell-based, mouse", "how_it_was_run": "as §1"}, "BetaD5 [10]": {"system": "BetaD5", "assay": "MTS cell viability assay", "format": "cell-based, mouse", "how_it_was_run": "as §1"}, "GammaD12 [11]": {"system": "GammaD12", "assay": "MTS cell viability assay", "format": "cell-based, mouse", "conditions": "MTS", "how_it_was_run": "as §1"}, "A549 [12]": {"system": "A549", "assay": "Cell cycle analysis by flow cytometry", "format": "cell-based, human", "conditions": "IC50 concentration, 96 h", "how_it_was_run": "as §4"}, "CaCo2 [13]": {"system": "CaCo2", "assay": "Cell cycle analysis by flow cytometry", "format": "cell-based, human", "conditions": "IC50 concentration, 96 h", "how_it_was_run": "as §4"}, "HepG2 [14]": {"system": "HepG2", "assay": "Cell cycle analysis by flow cytometry", "format": "cell-based, human", "conditions": "IC50 concentration, 96 h", "how_it_was_run": "as §4"}, "[15]": {"system": "human and murine cell lines", "assay": "Western blot, statements over human and murine cell lines", "format": "cell-based", "conditions": "IC50 concentration, 96 h", "description": "as §2, §3"}, "[16]": {"conditions": "24 h, read-out: Calculated IC50 after single treatment for 24 h"}, "[17]": {"conditions": "96 h, read-out: Calculated IC50 after daily treatment for 96 h"}},
  "note": "Read-outs that look alike come from different tables or passages of the source.",
  "data": [
    {"smiles": "CSc1nc(NCCc2ccc(Cl)cc2)c2cnn(CC(Cl)c3ccccc3)c2n1", "note": "(centres unmarked) [Si57]", "values": [
      {"measurement": "IC50", "setting": "A549 [1]; [16]", "result": "43.4 ± 8", "unit": "µM"},
      {"measurement": "IC50", "setting": "A549 [1]; [17]", "result": "8.3 ± 0.4", "unit": "µM"},
      {"measurement": "IC50", "setting": "CaCo2 [2]; [16]", "result": "77.1 ± 7.5", "unit": "µM"},
      {"measurement": "IC50", "setting": "CaCo2 [2]; [17]", "result": "6.8 ± 1.5", "unit": "µM"},
      {"measurement": "IC50", "setting": "HepG2 [3]; [16]", "result": "77.2 ± 7.5", "unit": "µM"},
      {"measurement": "IC50", "setting": "HepG2 [3]; [17]", "result": "25.5 ± 4.8", "unit": "µM"},
      {"measurement": "Actin protein expression", "setting": "A549 [4]", "result": 92},
      {"measurement": "Cdc2-p34 protein expression", "setting": "A549 [4]", "result": 55},
      {"measurement": "EGFR Y992-p protein expression", "setting": "A549 [4]", "result": 58},
      {"measurement": "EGFR Y1045-p protein expression", "setting": "A549 [4]", "result": 6.66},
      {"measurement": "EGFR protein expression", "setting": "A549 [4]", "result": 9},
      {"measurement": "EPS15 protein expression", "setting": "A549 [4]", "result": 70},
      {"measurement": "FAK protein expression", "setting": "A549 [4]", "result": 154},
      {"measurement": "STAT5 protein expression", "setting": "A549 [4]", "result": 34},
      {"measurement": "c-Abl protein expression", "setting": "A549 [4]", "result": 43},
      {"measurement": "c-Fos protein expression", "setting": "A549 [4]", "result": 49},
      {"measurement": "c-Src Y416-p protein expression", "setting": "A549 [4]", "result": 65},
      {"measurement": "c-Src protein expression", "setting": "A549 [4]", "result": 100},
      {"measurement": "hnRNP-K protein expression", "setting": "A549 [4]", "result": 83},
      {"measurement": "p38 protein expression", "setting": "A549 [4]", "result": 27},
      {"measurement": "p53 protein expression", "setting": "A549 [4]", "result": 33},
      {"measurement": "p73 protein expression", "setting": "A549 [4]", "result": 24},
      {"measurement": "Actin protein expression", "setting": "CaCo2 [5]", "result": 131},
      {"measurement": "Cdc2-p34 protein expression", "setting": "CaCo2 [5]", "result": 119},
      {"measurement": "EGFR Y992-p protein expression", "setting": "CaCo2 [5]", "result": 163},
      {"measurement": "EGFR Y1045-p protein expression", "setting": "CaCo2 [5]", "result": 259},
      {"measurement": "EGFR protein expression", "setting": "CaCo2 [5]", "result": 37},
      {"measurement": "EPS15 protein expression", "setting": "CaCo2 [5]", "result": 122},
      {"measurement": "FAK protein expression", "setting": "CaCo2 [5]", "result": 111},
      {"measurement": "STAT5 protein expression", "setting": "CaCo2 [5]", "result": 123},
      {"measurement": "c-Abl protein expression", "setting": "CaCo2 [5]", "result": 217},
      {"measurement": "c-Fos protein expression", "setting": "CaCo2 [5]", "result": 129},
      {"measurement": "c-Src Y416-p protein expression", "setting": "CaCo2 [5]", "result": 155},
      {"measurement": "c-Src protein expression", "setting": "CaCo2 [5]", "result": 106},
      {"measurement": "hnRNP-K protein expression", "setting": "CaCo2 [5]", "result": 98},
      {"measurement": "p38 protein expression", "setting": "CaCo2 [5]", "result": 84},
      {"measurement": "p53 protein expression", "setting": "CaCo2 [5]", "result": 70},
      {"measurement": "p73 protein expression", "setting": "CaCo2 [5]", "result": 78},
      {"measurement": "Cells in G1 phase", "setting": "GammaA3 [6]", "result": 59.6, "unit": "%"},
      {"measurement": "Cells in G2 phase", "setting": "GammaA3 [6]", "result": 18, "unit": "%"},
      {"measurement": "Cells in S phase", "setting": "GammaA3 [6]", "result": 22.4, "unit": "%"},
      {"measurement": "Cells in G1 phase", "setting": "BetaD5 [7]", "result": 52.5, "unit": "%"},
      {"measurement": "Cells in G2 phase", "setting": "BetaD5 [7]", "result": 32.3, "unit": "%"},
      {"measurement": "Cells in S phase", "setting": "BetaD5 [7]", "result": 15.4, "unit": "%"},
      {"measurement": "Cells in G1 phase", "setting": "GammaD12 [8]", "result": 33, "unit": "%"},
      {"measurement": "Cells in G2 phase", "setting": "GammaD12 [8]", "result": 6, "unit": "%"},
      {"measurement": "Cells in S phase", "setting": "GammaD12 [8]", "result": 61.1, "unit": "%"},
      {"measurement": "IC50", "setting": "GammaA3 [9]; [16]", "result": "26.6 ± 4.2", "unit": "µM"},
      {"measurement": "IC50", "setting": "GammaA3 [9]; [17]", "result": "5.8 ± 0.4", "unit": "µM"},
      {"measurement": "IC50", "setting": "A2C12; [16]", "result": "24.8 ± 0.2", "unit": "µM"},
      {"measurement": "IC50", "setting": "A2C12; [17]", "result": "5.4 ± 0.3", "unit": "µM"},
      {"measurement": "IC50", "setting": "BetaD5 [10]; [16]", "result": "19.6 ± 1.5", "unit": "µM"},
      {"measurement": "IC50", "setting": "BetaD5 [10]; [17]", "result": 9.1, "unit": "µM"},
      {"measurement": "IC50", "setting": "GammaD12 [11]; [16]", "result": "14.6 ± 0.7", "unit": "µM"},
      {"measurement": "IC50", "setting": "GammaD12 [11]; [17]", "result": "4.8 ± 0.6", "unit": "µM"},
      {"measurement": "Cells in G1 phase", "setting": "A549 [12]", "result": 70.5, "unit": "%"},
      {"measurement": "Cells in G2 phase", "setting": "A549 [12]", "result": 5.5, "unit": "%"},
      {"measurement": "Cells in S phase", "setting": "A549 [12]", "result": 24, "unit": "%"},
      {"measurement": "Cells in G1 phase", "setting": "CaCo2 [13]", "result": 41.7, "unit": "%"},
      {"measurement": "Cells in G2 phase", "setting": "CaCo2 [13]", "result": 18.1, "unit": "%"},
      {"measurement": "Cells in S phase", "setting": "CaCo2 [13]", "result": 40.2, "unit": "%"},
      {"measurement": "Cells in G1 phase", "setting": "HepG2 [14]", "result": 63.9, "unit": "%"},
      {"measurement": "Cells in G2 phase", "setting": "HepG2 [14]", "result": 8.1, "unit": "%"},
      {"measurement": "Cells in S phase", "setting": "HepG2 [14]", "result": 28, "unit": "%"},
      {"measurement": "hnRNP-K protein level", "setting": "[15]", "result": "remained equal"}
    ]}
  ]
}
